Source: patent US8962683B2, “Medium chain fatty acids applicable as anti-microbial agents” (Nutrition Sciences NV, priority 2004, dated 2015)

Assays:
E. coli K88 = test: Antimicrobial effect of C6, C8 and C10 on E. coli K88 in acidified feed suspension (gastric simulation); assay type: cell-based; conditions: 20% feed suspension pH 4.0
Procedure: In this example the anti-microbial activity of C6 and/or C8 and/or C10 MCFA against E. coli K88 was evaluated. The preparation of the test solution was as follows. to 1 kg feed (composition Table 6) an exactly determined quantity of E. coli K 88 was added. Subsequently, a suspension of 20% feed and 80% physiologic solution (0,85% saline) was created. To simulate the 20%-suspension in a gastric environment, a pH of 4.0 with 0.1 N HCl was established.
The acidified suspension was distributed in samples of 100 ml. Test substances were added in different concentrations as mentioned in table 7.
A microbial count at t=0 was executed. Samples were incubated during 3 h at 37° C. Samples were removed after 3 h and pH and microbial count were determined. The E. coli strains were counted on a Coli ID medium (Bio Mérieux, 42017).
The planned observations were: • a. Microbial count of control sample (blank) on t=0 • b. Microbial count of control sample (blank) and treatments on t=3 h. Table 8 depicts the calculated results proving the effectiveness of the anti-microbial effectiveness in the stomach of the different MCFA

[1] = system: Campylobacter jejuni VC 5, VC 6 and VC 7 strains; test: Effect of MCFA on growth and survival of Campylobacter sp. isolated from poultry caecum; assay type: cell-based; conditions: medium pH 5.0; for antimicrobial activity against Campylobacter strains (CFU/ml, FIGS. 1-9): micro-aerobic, tested concentrations, 0 and 180 minutes; for relative antimicrobial effect on the tested Campylobacter strains: comparison between MCFA
Procedure: In this example, the MIC values of different MCFA against Campylobacter sp. isolated from poultry caecum were determined.
Three tenfold dilutions of a 10% suspension of three types of MCFA's (C6, C8 and C10) were prepared in distilled water. To obtain the desired concentrations, 1.5, 0.75 and 0.36 ml of these dilutions were pipetted in petri dishes and carefully mixed with 15 ml molten growth medium. A suitable fermentation medium was used with a pH of 5.0.
Isolated Campylobacter strains were grown in suitable fermentation medium and incubated at 37° C. under micro-aerobic conditions by evacuating 80% of the normal atmosphere and introducing a gas mixture of 8% CO2, 8% H2 and 84% N2 into the jar. Inocula were prepared by diluting the cultures in buffered saline to a density of 0.5 on the McFarland turbidity scale and diluted 40-fold before inoculating. Plates were seeded with inoculum. Control plates of media without the product were inoculated at the end of the procedure. All plates were incubated at 37° C. under appropriate atmosphere. Readings were performed after 48 h. Campylobacter was counted after incubation.
These figures represent the number of colony forming units (CFU)/ml of Campylobacter jejuni VC 5 strain (FIGS. 1, 4, 7), Campylobacter jejuni VC 6 strain (FIGS. 2, 5, 8), and Campylobacter jejuni VC 7 strain (FIGS. 3, 6, 9) at various concentrations of MCFA and at two different time points (0 and 180 minutes).

[2] = 0.06% test substance, T = 3 h at 37° C.
[3] = 0.125% test substance, T = 3 h at 37° C.
[4] = 0.250% test substance, T = 3 h at 37° C.
[5] = 0.500% test substance, T = 3 h at 37° C.

| SMILES | Microbial count (E. coli K88; 0.06% test substance, T = 0 h) | Microbial count (E. coli K88; [2]) | Microbial count (E. coli K88; 0.125% test substance, T = 0 h) | Microbial count (E. coli K88; [3]) | Microbial count (E. coli K88; 0.250% test substance, T = 0 h) | Microbial count (E. coli K88; [4]) | Microbial count (E. coli K88; 0.500% test substance, T = 0 h) | Microbial count (E. coli K88; [5]) | antimicrobial activity against Campylobacter strains (CFU/ml, FIGS. 1-9) [1] | relative antimicrobial effect on the tested Campylobacter strains [1] |
| --- | --- | --- | --- | --- | --- | --- | --- | --- | --- | --- |
| CCCCCC(=O)O [C6, caproic acid] | 5.708 Log (CFU/g) | 4.160 Log (CFU/g) | 5.700 Log (CFU/g) | Total inhibition | 4.920 Log (CFU/g) | Total inhibition | Total inhibition | Total inhibition | show antimicrobial activities |  |
| CCCCCCCC(=O)O [C8, caprylic acid] | 5.649 Log (CFU/g) | Total inhibition | 5.415 Log (CFU/g) | Total inhibition | Total inhibition | Total inhibition | Total inhibition | Total inhibition | show antimicrobial activities | stronger antimicrobial effect compared to C6 |
| CCCCCCCCCC(=O)O [C10, capric acid] | 6.964 Log (CFU/g) | 6.854 Log (CFU/g) | 6.927 Log (CFU/g) | 6.707 Log (CFU/g) | 6.966 Log (CFU/g) | 4.708 Log (CFU/g) | 6.816 Log (CFU/g) | Total inhibition | show antimicrobial activities | stronger antimicrobial effect compared to C8 |
